Experimental data from ChEMBL document CHEMBL1133442, “Symmetrical bis(heteroarylmethoxyphenyl)alkylcarboxylic acids as inhibitors of leukotriene biosynthesis” (J Med Chem, 2000).
pIC50: −log10 of the molar value.

Columns and labels:
Assay type in all cases: functional
Homo sapiens [1] = organism: Homo sapiens; test: Inhibition of calcium ionophore (A-23187) stimulated leukotriene B4 (LTB4) formation in human neutrophils at 390 nM
Homo sapiens [2] = organism: Homo sapiens; test: Inhibition of calcium ionophore (A-23187) -stimulated leukotriene B4 (LTB4) formation in human neutrophils at 390 nM
Rattus norvegicus [3] = test: In vivo inhibition evaluation of leukotriene inhibition in an ionophore-induced rat pleurisy at 3 mg/kg
Rattus norvegicus [4] = test: Inhibition of leukotriene production in an ionophore-induced rat pleurisy model at 3 mg/kg; conditions: for inhibition in vivo at 3 mg/kg: Rattus norvegicus

Structure (SMILES)	pIC50 (Homo sapiens [1]; Homo sapiens)	inhibition in vivo at 3 mg/kg (Rattus norvegicus [4])	other results
CC(CCC(=O)O)(c1ccc(OCc2ccc3ccccc3c2)cc1)c1ccc(OCc2ccc3ccccc3c2)cc1	6.08		
CC(CCC(=O)O)(c1ccc(OCc2ccccn2)cc1)c1ccc(OCc2ccccn2)cc1			inhibition at 0.39 µM (Homo sapiens [2]): 53%; inhibition in vivo at 3 mg/kg (Rattus norvegicus [3]): 0%
C/C(=N\OCCC(C)(c1ccc(OCc2ccc3ccccc3n2)cc1)c1ccc(OCc2ccc3ccccc3n2)cc1)C(=O)O		23%	inhibition at 0.39 µM (Homo sapiens [2]; Homo sapiens): 54%
CC(CCC(=O)O)(c1ccc(OCc2ccc3ccccc3c2)cc1)c1ccc(OCc2ccc3ccccc3n2)cc1 (stereo not drawn)		55%	inhibition at 0.39 µM (Homo sapiens [2]; Homo sapiens): 93%
O=C(O)CSC(c1ccccc1)(c1ccc(OCc2ccc3ccccc3n2)cc1)c1ccc(OCc2ccc3ccccc3n2)cc1	7.06		
O=C(O)C1CCC(c2ccc(OCc3ccc4ccccc4n3)cc2)(c2ccc(OCc3ccc4ccccc4n3)cc2)CC1			Inhibition (Rattus norvegicus [4]): 0%; pIC50 (Homo sapiens [1]): 7.22
CC(CCC(=O)O)(c1ccc(OCc2ccc3ccccc3n2)cc1)c1ccc(OCc2nc3ccccc3s2)cc1 (stereo not drawn) [listing 1 of 2 here]	7.28		
O=C(O)C#CC(O)(c1ccc(OCc2ccc3ccccc3n2)cc1)c1ccc(OCc2ccc3ccccc3n2)cc1		48%	inhibition at 0.39 µM (Homo sapiens [2]; Homo sapiens): 98%
O=C([O-])C1CCC(c2ccc(OCc3ccc4ccccc4n3)cc2)(c2ccc(OCc3ccc4ccccc4n3)cc2)CC1.[Na+]	7.33		Inhibition (Rattus norvegicus [4]): 18%
O=C(O)/C=N/OC1CCC(c2ccc(OCc3ccc4ccccc4n3)cc2)(c2ccc(OCc3ccc4ccccc4n3)cc2)CC1		15%	inhibition at 0.39 µM (Homo sapiens [2]; Homo sapiens): 54%
CC(CCCC(=O)O)(c1ccc(OCc2ccc3ccccc3n2)cc1)c1ccc(OCc2ccc3ccccc3n2)cc1 [listing 1 of 2 here]			Inhibition (Rattus norvegicus [4]): 32%; pIC50 (Homo sapiens [1]): 7.37
O=C(O)CSC(c1ccc(OCc2ccc3ccccc3n2)cc1)(c1ccc(OCc2ccc3ccccc3n2)cc1)c1cccs1 [listing 1 of 2 here]		80%	
CC(C(=O)[O-])(c1ccc(OCc2ccc3ccccc3n2)cc1)c1ccc(OCc2ccc3ccccc3n2)cc1.[Na+]			Inhibition (Rattus norvegicus [4]): 46%; pIC50 (Homo sapiens [1]): 7.43
O=C([O-])C=C(c1ccc(OCc2ccc3ccccc3n2)cc1)c1ccc(OCc2ccc3ccccc3n2)cc1.[Na+]			Inhibition (Rattus norvegicus [4]): 19%; pIC50 (Homo sapiens [1]): 7.40
OCC1CCC(c2ccc(OCc3ccc4ccccc4n3)cc2)(c2ccc(OCc3ccc4ccccc4n3)cc2)CC1			inhibition at 0.39 µM (Homo sapiens [2]; Homo sapiens): 28%
CC(SCC(=O)O)(c1ccc(OCc2ccc3ccccc3n2)cc1)c1ccc(OCc2ccc3ccccc3n2)cc1		0%	inhibition at 0.39 µM (Homo sapiens [2]; Homo sapiens): 62%
CCOC(=O)C1CCC(c2ccc(OCc3ccc4ccccc4n3)cc2)(c2ccc(OCc3ccc4ccccc4n3)cc2)CC1	5.72		
Cn1c(COc2ccc(C(C)(CCC(=O)[O-])c3ccc(OCc4nc5ccccc5n4C)cc3)cc2)nc2ccccc21.[Na+]			Inhibition (Homo sapiens [2]): 59%; Inhibition (Rattus norvegicus [4]): 29%

Structure (SMILES)	pIC50 (Homo sapiens [1]; Homo sapiens)	inhibition in vivo at 3 mg/kg (Rattus norvegicus [4])	other results
O=C([O-])CC(c1ccc(OCc2ccc3ccccc3n2)cc1)c1ccc(OCc2ccc3ccccc3n2)cc1.[Na+]			Inhibition (Rattus norvegicus [4]): 30%; pIC50 (Homo sapiens [1]): 7.15
CC(CCC(=O)[O-])(c1ccc(OCc2ccc3ccccc3c2)cc1)c1ccc(OCc2ccc3ccccc3n2)cc1.[Na+] (stereo not drawn)			Inhibition (Rattus norvegicus [4]): 40%
Cn1c(COc2ccc(C(C)(CCC(=O)O)c3ccc(OCc4nc5ccccc5n4C)cc3)cc2)nc2ccccc21			Inhibition (Homo sapiens [2]): 27%; Inhibition (Rattus norvegicus [4]): 0%
CC(CC(c1ccc(OCc2ccc3ccccc3n2)cc1)c1ccc(OCc2ccc3ccccc3n2)cc1)C(=O)O (stereo not drawn) [listing 2 of 2 here]			inhibition at 0.39 µM (Homo sapiens [2]; Homo sapiens): 82%; Inhibition (Rattus norvegicus [4]): 43%
CC(CCC(=O)O)(c1ccc(OCc2nc3ccccc3s2)cc1)c1ccc(OCc2nc3ccccc3s2)cc1 [listing 1 of 2 here]	7.34	0%	
CC(CCCO)(c1ccc(OCc2ccc3ccccc3n2)cc1)c1ccc(OCc2ccc3ccccc3n2)cc1	6.89	7%	
Cn1c(COc2ccc(C(C)(CCC(=O)[O-])c3ccc(OCc4ccc5ccccc5n4)cc3)cc2)nc2ccccc21.[Na+] (stereo not drawn)	7.05		Inhibition (Rattus norvegicus [4]): 10%
CC(CCC(=O)O)(c1ccc(OCc2ccc3ccccc3n2)cc1)c1ccc(OCc2nc3ccccc3s2)cc1 (stereo not drawn) [listing 2 of 2 here]		35%	inhibition at 0.39 µM (Homo sapiens [2]; Homo sapiens): 95%
CC(CCC(=O)O)(c1ccc(OCc2cnc3ccccc3n2)cc1)c1ccc(OCc2cnc3ccccc3n2)cc1		14%	inhibition at 0.39 µM (Homo sapiens [2]; Homo sapiens): 47%
O=C(O)/C=N/OCC=C(c1ccc(OCc2ccc3ccccc3n2)cc1)c1ccc(OCc2ccc3ccccc3n2)cc1		17%	inhibition at 0.39 µM (Homo sapiens [2]; Homo sapiens): 100%
CC(CCCC(=O)O)(c1ccc(OCc2ccc3ccccc3n2)cc1)c1ccc(OCc2ccc3ccccc3n2)cc1 [listing 2 of 2 here]	7.49	35%	
OC(c1ccc(OCc2ccc3ccccc3n2)cc1)(c1ccc(OCc2ccc3ccccc3n2)cc1)c1cccs1		0%	inhibition at 0.39 µM (Homo sapiens [2]; Homo sapiens): 87%
O=C(O)CON=C1CCC(c2ccc(OCc3ccc4ccccc4n3)cc2)(c2ccc(OCc3ccc4ccccc4n3)cc2)CC1	7.19	0%	
CC(CCC(=O)O)(c1ccc(OCc2nc3ccccc3s2)cc1)c1ccc(OCc2nc3ccccc3s2)cc1 [listing 2 of 2 here]			pIC50 (Homo sapiens [1]): 7.30
CC(CCC(=O)O)(c1ccc(OCc2ccc3cc(F)ccc3n2)cc1)c1ccc(OCc2ccc3cc(F)ccc3n2)cc1	7.40	42%	
CC(CCC(=O)[O-])(c1ccc(OCc2ccc3ccccc3n2)cc1)c1ccc(OCc2ccc3ccccc3n2)cc1.[Na+]			ED50 (Rattus norvegicus [3]): 3 mg/kg; pIC50 (Homo sapiens [1]): 7.70
Cn1c(COc2ccc(C(C)(CCC(=O)O)c3ccc(OCc4ccc5ccccc5n4)cc3)cc2)nc2ccccc21 (stereo not drawn)			Inhibition (Rattus norvegicus [4]): 0%; pIC50 (Homo sapiens [1]): 7.10
O=C(O)CSC(c1ccc(OCc2ccc3ccccc3n2)cc1)(c1ccc(OCc2ccc3ccccc3n2)cc1)c1cccs1 [listing 2 of 2 here]	7.96		ED50 (Rattus norvegicus [3]): 1.1 mg/kg

More lines, main results first:

pIC50 (Homo sapiens [1]; Homo sapiens)	Structure (SMILES)	inhibition in vivo at 3 mg/kg (Rattus norvegicus [4])	other results
7.64	CC(CCC(=O)O)(c1ccc(OCc2ccc3ccccc3n2)cc1)c1ccc(OCc2ccc3ccccc3n2)cc1		ED50 (Rattus norvegicus [3]): 1.5 mg/kg
7.52	CC(CCCO/N=C/C(=O)O)(c1ccc(OCc2ccc3ccccc3n2)cc1)c1ccc(OCc2ccc3ccccc3n2)cc1	0%	
7.34	CC(CC(c1ccc(OCc2ccc3ccccc3n2)cc1)c1ccc(OCc2ccc3ccccc3n2)cc1)C(=O)O (stereo not drawn) [listing 1 of 2 here]	53%	
7.46	O=C(O)CO/N=C/C(c1ccc(OCc2ccc3ccccc3n2)cc1)c1ccc(OCc2ccc3ccccc3n2)cc1		
7.49	O=C(O)CON=C(c1ccc(OCc2ccc3ccccc3n2)cc1)c1ccc(OCc2ccc3ccccc3n2)cc1	0%	
7.52	CC(/C=C/C(=O)O)=N\OC(c1ccc(OCc2ccc3ccccc3n2)cc1)c1ccc(OCc2ccc3ccccc3n2)cc1	27%	
7.00	CC(C)(C(=O)O)C(c1ccc(OCc2ccc3ccccc3n2)cc1)c1ccc(OCc2ccc3ccccc3n2)cc1	50%	
7.43	C/C(=N\OC1CCC(c2ccc(OCc3ccc4ccccc4n3)cc2)(c2ccc(OCc3ccc4ccccc4n3)cc2)CC1)C(=O)O	48%	
7.40	CC(CC/C=N\OCC(=O)O)(c1ccc(OCc2ccc3ccccc3n2)cc1)c1ccc(OCc2ccc3ccccc3n2)cc1	0%	
7.46	C/C(=N\OCCCC(C)(c1ccc(OCc2ccc3ccccc3n2)cc1)c1ccc(OCc2ccc3ccccc3n2)cc1)C(=O)O	4%	
7.30	CC(O)(c1ccc(OCc2ccc3ccccc3n2)cc1)c1ccc(OCc2ccc3ccccc3n2)cc1	0%	
7.59	O=C(O)CO/N=C/C=C(c1ccc(OCc2ccc3ccccc3n2)cc1)c1ccc(OCc2ccc3ccccc3n2)cc1	10%	
7.30	O=C(O)C=C(c1ccc(OCc2ccc3ccccc3n2)cc1)c1ccc(OCc2ccc3ccccc3n2)cc1	11%	
7.70	C/C(=N\OCC=C(c1ccc(OCc2ccc3ccccc3n2)cc1)c1ccc(OCc2ccc3ccccc3n2)cc1)C(=O)O	42%	
7.55	CC(C)(/C=N/OCC(=O)O)C(c1ccc(OCc2ccc3ccccc3n2)cc1)c1ccc(OCc2ccc3ccccc3n2)cc1	42%	
7.47	CC(C)(CO/N=C/C(=O)O)C(c1ccc(OCc2ccc3ccccc3n2)cc1)c1ccc(OCc2ccc3ccccc3n2)cc1	27%	
7.30	C/C(CCC(=O)O)=N\OC(c1ccc(OCc2ccc3ccccc3n2)cc1)c1ccc(OCc2ccc3ccccc3n2)cc1		ED50 (Rattus norvegicus [3]): 1 mg/kg
7.22	O=C(O)CC(c1ccc(OCc2ccc3ccccc3n2)cc1)c1ccc(OCc2ccc3ccccc3n2)cc1	17%	
7.24	O=C(O)CSC(c1ccc(OCc2ccc3ccccc3n2)cc1)c1ccc(OCc2ccc3ccccc3n2)cc1		
7.17	O=C(O)/C=N/OC(c1ccc(OCc2ccc3ccccc3n2)cc1)c1ccc(OCc2ccc3ccccc3n2)cc1	37%	
7.22	O=C(O)C(c1ccc(OCc2ccc3ccccc3n2)cc1)c1ccc(OCc2ccc3ccccc3n2)cc1		
7.68	C/C(=N\OC(c1ccc(OCc2ccc3ccccc3n2)cc1)c1ccc(OCc2ccc3ccccc3n2)cc1)C(=O)O		ED50 (Rattus norvegicus [3]): 1.5 mg/kg
6.77	OC(c1ccc(OCc2ccc3ccccc3n2)cc1)c1ccc(OCc2ccc3ccccc3n2)cc1	2%	
6.77	CC(CC(=O)O)(c1ccc(OCc2ccc3ccccc3n2)cc1)c1ccc(OCc2ccc3ccccc3n2)cc1	0%	
7.23	C/C(=N\OCCC#CC(O)(c1ccc(OCc2ccc3ccccc3n2)cc1)c1ccc(OCc2ccc3ccccc3n2)cc1)C(=O)O	40%	
7.49	CC(C(=O)O)(c1ccc(OCc2ccc3ccccc3n2)cc1)c1ccc(OCc2ccc3ccccc3n2)cc1		Inhibition (Rattus norvegicus [4]): 25%
